These results are taken from patent EP1806348A2, “Pyrido (2,3-D)Pyrimidines as inhibitors of cellular proliferation” (Warner-Lambert Company LLC, priority 1997, dated 1998).

In one data set the target is cdk6/D2 (Homo sapiens, UniProt Q00534). Briefly: cdk6/D2 enzyme assay, similar to cdk4 assay. The format is biochemical. Particulars: read-out: IC50 against cdk6/D2. As for the experimental part:
(§1) The total volume was 0.1 mL containing a final concentration of 20 mM TRIS (tris[hydroxymethyl]aminomethane), at pH 7.4, 50 mM NaCl, 1 mM dithiothreitol, 10 mM MgCl2, 25 µM ATP containing 0.25 µCi of [^32P]ATP, 20 ng of cdk4, 1 µg of retinoblastoma, and appropriate dilutions of a compound of the present invention. All components except the ATP were added to the wells, and the plate was placed on a plate mixer for 2 minutes. The reaction was started by adding [^32P]ATP and the plate was incubated at 25°C for 15 minutes. The reaction was terminated by addition of 0.1 mL of 20% trichloroacetic acid (TCA). The plate was kept at 4°C for at least 1 hour to allow the substrate to precipitate. The wells were then washed five times with 0.2 mL of 10% TCA and ^32P incorporation was determined with a beta plate counter (Wallac Inc., Gaithersburg, MD).
(§2) Several of the invention compounds have also shown good inhibitory activity against cdk6/D2 and cdk6/D3 enzymes. These assays are carried out in a manner similar to that described above for cdk4, by simply employing the appropriate cdk6 kinase enzyme.

Another data set addresses cdk6/D3 (Homo sapiens, UniProt Q00534). In words: cdk6/D3 enzyme assay, similar to cdk4 assay. It counts as biochemical. Particulars: read-out: IC50 against cdk6/D3. As to the method: as §1, §2
The target of a further data set is cdk4/D (Homo sapiens, UniProt P11802). Briefly: Cyclin-dependent kinase 4 (cdk4) enzyme assay, 32P incorporation into retinoblastoma. The conditions noted are these: Table 1; 25 µM ATP, retinoblastoma substrate. It counts as biochemical. As for the experimental part: A typical assay, for instance, measures inhibitory activity against the cyclin D dependent kinase 4 enzyme (cdk4/D). […] The cdk 4 assay was carried out as follows.
Sequence of cdk4/D (P11802 whole entry): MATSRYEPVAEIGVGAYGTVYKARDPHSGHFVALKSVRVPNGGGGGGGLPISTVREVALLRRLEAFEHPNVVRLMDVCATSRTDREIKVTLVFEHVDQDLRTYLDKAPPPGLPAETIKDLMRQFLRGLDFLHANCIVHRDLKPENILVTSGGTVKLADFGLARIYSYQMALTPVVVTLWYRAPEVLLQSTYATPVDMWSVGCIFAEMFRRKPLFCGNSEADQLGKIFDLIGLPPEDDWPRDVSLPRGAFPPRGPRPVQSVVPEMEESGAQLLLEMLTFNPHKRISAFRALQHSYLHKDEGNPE
Sequence of cdk4/D (P24385 whole entry, further chain): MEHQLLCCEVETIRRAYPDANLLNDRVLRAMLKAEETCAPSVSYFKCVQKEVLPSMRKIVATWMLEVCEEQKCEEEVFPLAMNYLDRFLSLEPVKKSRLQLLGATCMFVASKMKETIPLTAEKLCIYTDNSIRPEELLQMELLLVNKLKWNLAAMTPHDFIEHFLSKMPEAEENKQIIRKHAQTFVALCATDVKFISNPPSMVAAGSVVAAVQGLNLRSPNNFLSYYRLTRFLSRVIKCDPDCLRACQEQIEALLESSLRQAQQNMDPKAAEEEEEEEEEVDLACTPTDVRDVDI
All components except the ATP were added to the wells, and the plate was placed on a plate mixer for 2 minutes. […] The reaction was terminated by addition of 0.1 mL of 20% trichloroacetic acid (TCA). The plate was kept at 4°C for at least 1 hour to allow the substrate to precipitate. The wells were then washed five times with 0.2 mL of 10% TCA and ^32P incorporation was determined with a beta plate counter (Wallac Inc., Gaithersburg, MD).

The target of a further data set is cdk2/cyclinE (Homo sapiens, UniProt P24941). In words: Cyclin-dependent kinase assay (cdk2/cyclinE). The conditions noted are these: Table 1; read-out: cdk2/E IC50. The format is biochemical. As to the method:
(§3) All components except the ATP were added to the wells, and the plate was placed on a plate mixer for 2 minutes. […] The reaction was terminated by addition of 0.1 mL of 20% TCA. The plate was kept at 4°C for at least 1 hour to allow the substrate to precipitate. The wells were then washed five times with 0.2 mL of 10% TCA and ^32P incorporation determined with a beta plate counter (Wallac Inc., Gaithersburg, MD).

Another data set has as its target cdk2/cyclinA (Homo sapiens, UniProt P24941). Briefly: Cyclin-dependent kinase assay (cdk2/cyclinA). It counts as biochemical. The conditions noted are these: Table 1. As to the method:
as §3

The next data set concerns the target cdc2/cyclinB (Homo sapiens, UniProt P06493). In words: Cyclin-dependent kinase assay (cdc2/cyclinB). It counts as biochemical. Particulars: Table 1; read-out: cdk1/B IC50. As to the method: as §3
The target of a further data set is c-Src (Homo sapiens, UniProt P12931). In words: c-Src protein kinase assay. The format is biochemical. The conditions noted are these: Table 5. As for the experimental part: C-Src kinase was purified from baculovirus infected insect cell lysates using an antipeptide monoclonal antibody directed against the N-terminal amino acids (amino acids 2-17) of c-Src. The antibody, covalently linked to 0.65 µm latex beads, was added to a suspension of insect cell lysis buffer comprised of 150 mM NaCl, 50 mM Tris pH 7.5, 1 mM DTT, 1% NP-40,2 mM EGTA, 1 mM sodium vanadate, 1 mM PMSF, 1 µg/mL each of leupeptin, pepstatin, and aprotinin. Insect cell lysate containing c-Src protein was incubated with these beads for 3 to 4 hours at 4°C with rotation. At the end of the lysate incubation, the beads were rinsed three times in lysis buffer, resuspended in lysis buffer containing 10% glycerol, and frozen. These latex beads were thawed, rinsed three times in assay buffer (40 mM Tris, pH 7.5, […]) and suspended in the same buffer. In a Millipore 96-well plate with a 0.65 µm polyvinylidine membrane bottom were added the reaction components: 10 µL c-Src beads, 10 µL of 2.5 mg/mL poly GluTyr substrate, 5 µM ATP containing 0.2 µCi labeled ^32P-ATP, 5 µL DMSO containing inhibitors or as a solvent control, and buffer to make the final volume 125 µL. The reaction was started at room temperature by addition of the ATP and quenched 10 minutes later by the addition of 125 µL of 30% TCA, 0.1 M sodium pyrophosphate for 5 minutes on ice. […] The filters were then punched, counted in a liquid scintillation counter, and the data examined for inhibitory activity in comparison to a known inhibitor such as erbstatin. […]
Sequence of c-Src (P12931 whole entry, the tested form may be a part): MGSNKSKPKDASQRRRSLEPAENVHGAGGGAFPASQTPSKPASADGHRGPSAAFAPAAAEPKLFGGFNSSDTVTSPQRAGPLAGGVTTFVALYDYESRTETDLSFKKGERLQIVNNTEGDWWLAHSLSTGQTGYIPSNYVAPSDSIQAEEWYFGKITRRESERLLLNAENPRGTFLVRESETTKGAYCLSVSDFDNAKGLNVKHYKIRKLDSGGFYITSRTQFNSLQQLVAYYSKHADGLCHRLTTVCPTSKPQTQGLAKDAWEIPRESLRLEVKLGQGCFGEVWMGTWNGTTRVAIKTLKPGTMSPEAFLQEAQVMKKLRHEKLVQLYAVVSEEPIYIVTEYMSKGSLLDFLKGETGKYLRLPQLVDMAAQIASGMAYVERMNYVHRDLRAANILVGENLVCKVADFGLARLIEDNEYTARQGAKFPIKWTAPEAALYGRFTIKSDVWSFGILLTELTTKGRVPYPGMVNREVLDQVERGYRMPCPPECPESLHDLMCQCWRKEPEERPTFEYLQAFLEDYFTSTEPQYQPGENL

Data set [1] can be described thus: Plasma levels in mice after dosing. The format is in vivo, nude mice. The conditions noted are these: at 30 minutes following dosing. As for the experimental part: For example, the compound of Example 60 was administered orally at 5 mg/kg to mice, and plasma levels of about 200 nM were measured at 30 minutes following dosing. The compound was also administered intraperitoneally at 12 mg/kg and produced a peak plasma concentration of 10,000 nM at 30 minutes following dosing.

Data set [2] concerns MCF-7 human mammary tumor xenografts. Briefly: MCF-7 tumor xenograft growth inhibition in mice. It counts as in vivo, female nude mice. The conditions noted are these: doses of 5 to 20 mg/kg, schedule q12h × 2; days 1-14.

Sequence of cdc2/cyclinB (P06493 whole entry, the tested form may be a part): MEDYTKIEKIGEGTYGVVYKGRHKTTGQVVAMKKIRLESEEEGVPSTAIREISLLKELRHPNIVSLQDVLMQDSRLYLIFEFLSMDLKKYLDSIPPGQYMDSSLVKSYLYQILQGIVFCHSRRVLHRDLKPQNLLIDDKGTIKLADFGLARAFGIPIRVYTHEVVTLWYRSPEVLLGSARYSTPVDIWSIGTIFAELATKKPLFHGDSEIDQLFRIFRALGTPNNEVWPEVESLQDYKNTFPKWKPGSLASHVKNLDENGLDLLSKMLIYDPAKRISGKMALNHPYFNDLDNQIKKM
Sequence of cdc2/cyclinB (P14635 whole entry, further chain, the tested form may be a part): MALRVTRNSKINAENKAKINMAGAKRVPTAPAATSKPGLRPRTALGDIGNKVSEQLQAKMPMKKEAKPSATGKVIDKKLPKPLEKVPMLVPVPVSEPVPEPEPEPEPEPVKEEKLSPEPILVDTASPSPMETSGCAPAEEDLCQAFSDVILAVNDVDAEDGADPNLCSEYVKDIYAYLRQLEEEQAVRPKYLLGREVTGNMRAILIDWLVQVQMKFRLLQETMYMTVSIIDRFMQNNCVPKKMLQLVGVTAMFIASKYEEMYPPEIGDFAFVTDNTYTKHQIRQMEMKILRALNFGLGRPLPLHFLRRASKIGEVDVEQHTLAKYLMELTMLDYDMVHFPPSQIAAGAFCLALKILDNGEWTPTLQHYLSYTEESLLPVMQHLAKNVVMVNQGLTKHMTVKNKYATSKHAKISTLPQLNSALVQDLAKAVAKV
Sequence of cdk6/D3 (P30281 whole entry): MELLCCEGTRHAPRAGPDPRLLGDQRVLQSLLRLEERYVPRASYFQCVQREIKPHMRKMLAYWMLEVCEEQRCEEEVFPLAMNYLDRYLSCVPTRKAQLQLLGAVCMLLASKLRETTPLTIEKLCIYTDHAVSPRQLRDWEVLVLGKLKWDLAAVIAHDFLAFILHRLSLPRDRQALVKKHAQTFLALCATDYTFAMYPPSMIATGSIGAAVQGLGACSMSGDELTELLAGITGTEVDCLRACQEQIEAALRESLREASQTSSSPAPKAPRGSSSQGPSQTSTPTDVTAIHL
Sequence of cdk6/D3 (Q00534 whole entry): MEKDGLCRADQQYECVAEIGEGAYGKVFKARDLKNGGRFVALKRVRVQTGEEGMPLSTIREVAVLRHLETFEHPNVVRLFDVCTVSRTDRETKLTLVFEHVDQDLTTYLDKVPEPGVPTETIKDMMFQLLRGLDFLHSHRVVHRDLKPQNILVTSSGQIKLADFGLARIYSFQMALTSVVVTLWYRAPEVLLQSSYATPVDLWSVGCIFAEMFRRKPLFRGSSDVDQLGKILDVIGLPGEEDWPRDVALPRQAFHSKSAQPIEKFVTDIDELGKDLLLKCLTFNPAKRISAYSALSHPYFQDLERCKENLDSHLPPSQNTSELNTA
Sequence of cdk6/D2 (Q00534 whole entry): as above
Sequence of cdk6/D2 (P30279 whole entry, further chain): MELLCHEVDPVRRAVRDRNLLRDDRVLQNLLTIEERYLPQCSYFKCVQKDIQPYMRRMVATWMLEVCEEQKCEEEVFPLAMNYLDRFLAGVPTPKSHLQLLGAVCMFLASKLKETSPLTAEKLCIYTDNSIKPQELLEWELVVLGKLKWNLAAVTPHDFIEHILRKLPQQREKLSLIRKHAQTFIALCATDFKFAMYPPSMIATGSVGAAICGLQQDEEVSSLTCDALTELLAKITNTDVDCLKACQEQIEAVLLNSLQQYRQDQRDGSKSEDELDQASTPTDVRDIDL

Consider `O=c1ccc2cnc(Nc3ccc(N4CCC(CCCO)CC4)cc3)nc2n1C1CC2CCC1C2` (centres unmarked) [Example 214, 8-Bicyclo[2.2.1]hept-2-yl-2-{4-[4-(3-hydroxy-propyl)-piperidin-1-yl]-phenylamino}-8H-pyrido[2,3-d]pyrimidin-7-one], for which the IC50 is 7.1 nM on cdk6/D2 and 13 nM on cdk6/D3.

Regarding `CC(C)n1c(=O)ccc2cnc(Nc3ccc(N4CCN(C)CC4)cc3)nc21` [Example 60, 8-Isopropyl-2-[4-(4-methylpiperazin-1-yl)-phenylamino]-8H-pyrido[2,3-d]pyrimidin-7-one], the IC50 at cdk4/D came out at 32 nM; at cdk2/cyclinE it was 270 nM; against cdk2/cyclinA it was 58 nM; at cdc2/cyclinB, 675 nM; at c-Src it was 0.89 µM. In addition, the peak plasma concentration in data set [1] (intraperitoneally at 12 mg/kg) was 10,000 nM. The compound further registered a concentration at 30 min in data set [1] (nude, mouse, plasma, po, mice, orally at 5 mg/kg) of about 200 nM. In addition, in data set [2], the tumor growth inhibitions entry is on record as “statistically insignificant tumor growth inhibitions”.

With `CCCCn1c(=O)ccc2cnc(Nc3ccccc3)nc21` [Example 40, 8-Butyl-2-phenylamino-8H-pyrido[2,3-d]pyrimidin-7-one], the IC50 against cdk4/D was 1490 nM; at cdk2/cyclinE, 58 nM; at cdk2/cyclinA, 37 nM; on cdc2/cyclinB, 205 nM; at c-Src it was 19.5 µM.

Turning to `CCN(CC)CCOc1ccc(Nc2ncc3ccc(=O)n(C(C)C)c3n2)cc1` [Example 59, 2-[4-(2-Diethylaminoethoxy)-phenylamino]-8-isopropyl-8H-pyrido[2,3-d]pyrimidin-7-one], the IC50 came to 45 nM against cdk4/D; 800 nM on cdk2/cyclinE; 80 nM at cdk2/cyclinA; 1240 nM on cdc2/cyclinB; 4.43 µM on c-Src.
